Source: US7718652B2, “Substituted benzothiadiazinedioxide derivatives and methods of their use” (Wyeth LLC, priority 2006, dated 2010)
Counter-ions that a name gives are not always drawn.

Target: T1, human hNET (Homo sapiens, UniProt P23975)
T1 construct: expressed in transfected cells; host or cells: MDCK-Net6 (MDCK cells stably transfected)
Experiment: Functional Norepinephrine (NE) Uptake Assay in MDCK-Net6 cells
Assay type: cell-based
Conditions: for IC50: MDCK-Net6 cells stably transfected with human hNET, 3H norepinephrine 16 nM; for inhibition at 10 µM: MDCK-Net6 cells, printed in the IC50 column where 50% inhibition was not exceeded, read-out: hNET Uptake, % inhibition at highest concentration tested
Method: MDCK-Net6 cells, stably transfected with human hNET (Pacholczyk, T., R. D. Blakely, and S. G. Amara, Nature, 1991, 350(6316): p. 350-4) were cultured in growth medium containing high glucose DMEM (Gibco, Cat. No. 11995), 10% FBS (dialyzed, heat-inactivated, US Bio-Technologies, Lot FBD1129HI) and 500 μg/ml G418 (Gibco, Cat. No. 10131). Cells were plated at 300,000 T75 flask and cells were split twice weekly.
Functional Norepinephrine (NE) Uptake Assay
On day 1, cells were plated at 3,000 cells/well in growth medium and maintained in a cell incubator (37° C., 5% CO2). On day 2, growth medium was replaced with 200 μl of assay buffer (25 mM HEPES; 120 mM NaCl; 5 mM KCl; 2.5 mM CaCl2; 1.2 mM MgSO4; 2 mg/ml glucose (pH 7.4, 37° C.)) containing 0.2 mg/ml ascorbic acid and 1 μM pargyline. For screening, 25 μl of compound in 4% […] was added directly to each well and the plate is incubated for 5 minutes at 37° C.
To initiate the norepinephrine reuptake, 16 nM (final concentration) of ^3H norepinephrine (specific activity; 40-80 Ci/mmol) in assay buffer was delivered in 25 μl aliquots to each well, and the plates were incubated for 5 minutes at 37° C. The reaction was aspirated from the plate and the cells washed with 250 μl of 50 mM Tris Buffer (4° C.). The plates were left to dry for 1 hour. The cells were lysed using 0.25 M NaOH solution then placed on a shake table and vigorously shaken for 10 minutes. After cell lysis, 100 μl of Microscint 20 (PerkinElmer; #87-051101) were added to the plates and the plates were sealed with film tape and replaced on the shake table for a minimum of 10 minutes. The plates were counted in a TopCount counter (PerkinElmer).
For screening single point determinations, each compound plate contains at least 3 control wells (maximum NE reuptake determinant) and 3 non-specific wells determined by adding 20 μM of desipramine (minimum NE reuptake determinant). Determination of active compounds are calculated using a Microsoft Excel spread sheet applying the following formula: % inhibition=[1−((mean cpm test compound wells−mean cpm non-specific wells)/(mean cpm control wells−mean cpm non-specific wells))]×100
For IC50 determination, raw cpm values were generated in a data file from the TopCount counter. The data was organized in Microsoft Excel and transferred into PRIZM graphing and statistical program, which calculates the estimated IC50 value. Calculation of IC50 values were made using non-linear regression analysis with a sigmoidal dose response with variable slope. The statistical program used wells containing ^3H norepinephrine only as the maximal NE reuptake determinant and wells containing ^3H norepinephrine plus 20 μM desipramine as the minimal NE reuptake determinant (non-specific determinant). Estimation of the IC50 value was completed on a log scale and the line was fit between the maximal and minimal NE reuptake values.

T1 sequence (P23975 whole entry): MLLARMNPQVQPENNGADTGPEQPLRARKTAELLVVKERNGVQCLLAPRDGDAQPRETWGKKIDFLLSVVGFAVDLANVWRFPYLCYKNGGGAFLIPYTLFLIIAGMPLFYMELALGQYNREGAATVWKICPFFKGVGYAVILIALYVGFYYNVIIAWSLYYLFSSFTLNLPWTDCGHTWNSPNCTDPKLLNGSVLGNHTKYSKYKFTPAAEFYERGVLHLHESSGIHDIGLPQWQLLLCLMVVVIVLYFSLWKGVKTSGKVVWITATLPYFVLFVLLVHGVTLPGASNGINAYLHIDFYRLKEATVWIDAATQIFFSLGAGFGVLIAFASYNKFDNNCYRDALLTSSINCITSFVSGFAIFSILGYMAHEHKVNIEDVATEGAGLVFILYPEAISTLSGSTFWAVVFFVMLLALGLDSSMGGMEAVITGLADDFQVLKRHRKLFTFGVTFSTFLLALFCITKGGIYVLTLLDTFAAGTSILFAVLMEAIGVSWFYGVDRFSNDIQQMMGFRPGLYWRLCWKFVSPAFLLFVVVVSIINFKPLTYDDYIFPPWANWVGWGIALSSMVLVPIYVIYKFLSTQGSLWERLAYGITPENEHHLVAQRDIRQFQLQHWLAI

| inhibition at 10 µM | Compound | IC50 |
| --- | --- | --- |
| – | CNCCCN1Cc2ccccc2N(c2cccc(F)c2)S1(=O)=O [Example 2, 3-[1-(3-fluorophenyl)-2,2-dioxido-1,4-dihydro-3H-2,1,3-benzothiadiazin-3-yl]-N-methylpropan-1-amine hydrochloride] | 628 nM |
| – | CNCCCN1Cc2ccccc2N(c2ccc(F)cc2)S1(=O)=O [Example 7, 3-[1-(4-fluorophenyl)-2,2-dioxido-1,4-dihydro-3H-2,1,3-benzothiadiazin-3-yl]-N-methylpropan-1-amine hydrochloride] | 492 nM |
| – | O=S1(=O)N(CCNC2CC2)Cc2ccccc2N1c1ccccc1F [Example 12, N-{2-[1-(2-fluorophenyl)-2,2-dioxido-1,4-dihydro-3H-2,1,3-benzothiadiazin-3-yl]ethyl}cyclopropanamine] | 2380 nM |
| – | CNC[C@@H](O)CCN1Cc2ccccc2N(c2ccccc2F)S1(=O)=O [Example 24, (2S)-4-[1-(2-fluorophenyl)-2,2-dioxido-1,4-dihydro-3H-2,1,3-benzothiadiazin-3-yl]-1-(methylamino)butan-2-ol] | 95 nM |
| – | CNCCCN1Cc2ccccc2N(c2ccccc2)S1(=O)=O [Example 1, 3-(2,2-dioxido-1-phenyl-1,4-dihydro-3H-2,1,3-benzothiadiazin-3-yl)-N-methylpropan-1-amine hydrochloride] | 129 nM |
| – | CNCCCCN1Cc2ccccc2N(c2ccccc2F)S1(=O)=O [Example 15, 4-[1-(2-fluorophenyl)-2,2-dioxido-1,4-dihydro-3H-2,1,3-benzothiadiazin-3-yl]-N-methylbutan-1-amine] | 38 nM |
| – | CNCCN1Cc2cc(F)ccc2N(c2ccccc2F)S1(=O)=O [Example 17, 2-[6-fluoro-1-(2-fluorophenyl)-2,2-dioxido-1,4-dihydro-3H-2,1,3-benzothiadiazin-3-yl]-N-methylethanamine] | 1410 nM |
| – | O=S1(=O)N(CCNC2CC2)Cc2cc(F)ccc2N1c1ccccc1F [Example 18, N-{2-[6-fluoro-1-(2-fluorophenyl)-2,2-dioxido-1,4-dihydro-3H-2,1,3-benzothiadiazin-3-yl]ethyl}cyclopropanamine] | 2870 nM |
| – | CNCCCN1Cc2ccccc2N(c2cccc(C)c2)S1(=O)=O [Example 3, N-methyl-3-[1-(3-methylphenyl)-2,2-dioxido-1,4-dihydro-3H-2,1,3-benzothiadiazin-3-yl]propan-1-amine hydrochloride] | 1030 nM |
| – | CNCCCN1Cc2ccccc2N(c2ccc(Cl)cc2)S1(=O)=O [Example 5, 3-[1-(4-chlorophenyl)-2,2-dioxido-1,4-dihydro-3H-2,1,3-benzothiadiazin-3-yl]-N-methylpropan-1-amine hydrochloride] | 908 nM |
| – | O=S1(=O)N(CCCNC2CC2)Cc2ccccc2N1c1ccccc1F [Example 14, N-{3-[1-(2-fluorophenyl)-2,2-dioxido-1,4-dihydro-3H-2,1,3-benzothiadiazin-3-yl]propyl}cyclopropanamine] | 956 nM |
| – | CNCCCN1Cc2ccccc2N(c2cccc(OC)c2)S1(=O)=O [Example 4, 3-[1-(3-methoxyphenyl)-2,2-dioxido-1,4-dihydro-3H-2,1,3-benzothiadiazin-3-yl]-N-methylpropan-1-amine hydrochloride] | 792 nM |
| – | O=S1(=O)N(CCCCNC2CC2)Cc2ccccc2N1c1ccccc1F [Example 16, N-{4-[1-(2-fluorophenyl)-2,2-dioxido-1,4-dihydro-3H-2,1,3-benzothiadiazin-3-yl]butyl}cyclopropanamine] | 139 nM |
| 36% | CNCCN1c2ccccc2CN(c2ccccc2F)S1(=O)=O [Example 26, 2-[3-(2-fluorophenyl)-2,2-dioxido-3,4-dihydro-1H-2,1,3-benzothiadiazin-1-yl]-N-methylethanamine] | – |
| – | O=S1(=O)N(CCCCNC2CC2)Cc2cc(F)ccc2N1c1ccccc1F [Example 22, N-{4-[6-fluoro-1-(2-fluorophenyl)-2,2-dioxido-1,4-dihydro-3H-2,1,3-benzothiadiazin-3-yl]butyl}cyclopropanamine] | 177 nM |
| – | O=S1(=O)N(CCCNC2CC2)Cc2cc(F)ccc2N1c1ccccc1F [Example 20, N-{3-[6-fluoro-1-(2-fluorophenyl)-2,2-dioxido-1,4-dihydro-3H-2,1,3-benzothiadiazin-3-yl]propyl}cyclopropanamine] | 1750 nM |
| – | CNCCCN1Cc2ccccc2N(c2ccc(OC)cc2)S1(=O)=O [Example 9, 3-[1-(4-methoxyphenyl)-2,2-dioxido-1,4-dihydro-3H-2,1,3-benzothiadiazin-3-yl]-N-methylpropan-1-amine hydrochloride] | 3550 nM |
| – | CNC[C@@H](O)CCN1Cc2cc(F)ccc2N(c2ccccc2F)S1(=O)=O [Example 23, (2S)-4-[6-fluoro-1-(2-fluorophenyl)-2,2-dioxido-1,4-dihydro-3H-2,1,3-benzothiadiazin-3-yl]-1-(methylamino)butan-2-ol] | 81 nM |
| 47% | CNCCCN1c2ccccc2CN(c2ccccc2F)S1(=O)=O [Example 25, 3-[3-(2-fluorophenyl)-2,2-dioxido-3,4-dihydro-1H-2,1,3-benzothiadiazin-1-yl]-N-methylpropan-1-amine] | – |
| – | CNCCCN1Cc2cc(F)ccc2N(c2ccccc2F)S1(=O)=O [Example 19, 3-[6-fluoro-1-(2-fluorophenyl)-2,2-dioxido-1,4-dihydro-3H-2,1,3-benzothiadiazin-3-yl]-N-methylpropan-1-amine] | 119 nM |
| – | CNCCCN1Cc2ccccc2N(c2ccccc2F)S1(=O)=O [Example 13, 3-[1-(2-fluorophenyl)-2,2-dioxido-1,4-dihydro-3H-2,1,3-benzothiadiazin-3-yl]-N-methylpropan-1-amine] | 29 nM |
| – | CNCCCCN1Cc2cc(F)ccc2N(c2ccccc2F)S1(=O)=O [Example 21, 4-[6-fluoro-1-(2-fluorophenyl)-2,2-dioxido-1,4-dihydro-3H-2,1,3-benzothiadiazin-3-yl]-N-methylbutan-1-amine] | 30 nM |
| – | CNCCCN1Cc2ccccc2N(c2ccc(F)c(F)c2)S1(=O)=O [Example 10, 3-[1-(3,4-difluorophenyl)-2,2-dioxido-1,4-dihydro-3H-2,1,3-benzothiadiazin-3-yl]-N-methylpropan-1-amine hydrochloride] | 973 nM |
| – | CNCCCN1Cc2ccccc2N(c2ccc(C)cc2)S1(=O)=O [Example 8, N-methyl-3-[1-(4-methylphenyl)-2,2-dioxido-1,4-dihydro-3H-2,1,3-benzothiadiazin-3-yl]propan-1-amine hydrochloride] | 135 nM |
| – | CNCCN1Cc2ccccc2N(c2ccccc2F)S1(=O)=O [Example 11, 2-[1-(2-fluorophenyl)-2,2-dioxido-1,4-dihydro-3H-2,1,3-benzothiadiazin-3-yl]-N-methylethanamine] | 200 nM |
| – | CNCCCN1Cc2ccccc2N(c2ccc(F)c(Cl)c2)S1(=O)=O [Example 6, 3-[1-(3-chloro-4-fluorophenyl)-2,2-dioxido-1,4-dihydro-3H-2,1,3-benzothiadiazin-3-yl]-N-methylpropan-1-amine hydrochloride] | 1500 nM |
